Data: ChEMBL document CHEMBL1152047, “(cis)-3-methyl-1,5-benzothiazepine-4-ones: potent analogs of the calcium channel blocker diltiazen” (Bioorg Med Chem Lett, 1993)

species: Oryctolagus cuniculus; experiment: Vasorelaxant potency determined by relaxation of potassium depolarized rabbit aortic strips; format: functional; details: Aorta

Row | Structure (SMILES) | IC50 [nM]
1 | COc1ccc([C@@H]2Sc3ccccc3N(CCN(C)C)C(=O)[C@@H]2C)cc1 | 82
2 | COc1ccc([C@@H]2Sc3cc(OC)ccc3N(CCN(C)C)C(=O)[C@@H]2OC(C)=O)cc1 | 120
3 | COc1ccc([C@@H]2Sc3cc(C(F)(F)F)ccc3N(CCN(C)C)C(=O)[C@@H]2C)cc1 | 22
4 | COc1ccc([C@@H]2Sc3cc(OC)ccc3N(CCN(C)C)C(=O)[C@@H]2C)cc1 | 10
